Values joined by “and” are separate entries in the source; they are usually repeats but may differ in a detail not shown here. Equal entries are not always repeated. Where two headings read alike, the source gives them in different places.
Molecular target: C. elegans (N2) complex I (NADH:ubiquinone oxidoreductase) (Caenorhabditis elegans, UniProt P24887+Q93873+Q94360)
Assay: biochemical
Assay type: biochemical
How it was run: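 Complex I rate: initial linear slope of A600 over 15 min, expressed as percent of solvent control. Triple freeze-thawed mitochondria (0.2 mg/mL) in KPi pH 7.5, BSA 3 mg/mL, NADH 80 μM, decylubiquinone 60 μM, DCIP 160 μM, antimycin A, KCN.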

[1] = 0.125 µM, wild-type C. elegans mitochondria, mean of replicates, read-out: percent (%) in vitro complex I activity relative to solvent control
[2] = 0.125 µM, wild-type C. elegans mitochondria, single replicate
[3] = 0.313 µM, wild-type C. elegans mitochondria, mean of replicates, read-out: percent (%) in vitro complex I activity relative to solvent control
[4] = 0.313 µM, wild-type C. elegans mitochondria, single replicate
[5] = 0.313 µM, wild-type C. elegans mitochondria, single replicate, read-out: percent (%) in vitro complex I activity relative to solvent control
[6] = 0.625 µM, wild-type C. elegans mitochondria, mean of replicates, read-out: percent (%) in vitro complex I activity relative to solvent control
[7] = 0.625 µM, wild-type C. elegans mitochondria, single replicate
[8] = 1.5 µM, wild-type C. elegans mitochondria, mean of replicates, read-out: percent (%) in vitro complex I activity relative to solvent control
[9] = 1.5 µM, wild-type C. elegans mitochondria, single replicate
[10] = 3 µM, wild-type C. elegans mitochondria, mean of replicates, read-out: percent (%) in vitro complex I activity relative to solvent control
[11] = 3 µM, wild-type C. elegans mitochondria, single replicate
[12] = 3 µM, wild-type C. elegans mitochondria, single replicate, read-out: percent (%) in vitro complex I activity relative to solvent control
[13] = 15 µM, wild-type C. elegans mitochondria, mean of replicates, read-out: percent (%) in vitro complex I activity relative to solvent control
[14] = 15 µM, wild-type C. elegans mitochondria, single replicate
[15] = 15 µM, wild-type C. elegans mitochondria, single replicate, read-out: percent (%) in vitro complex I activity relative to solvent control
[16] = 37.5 µM, wild-type C. elegans mitochondria, mean of replicates, read-out: percent (%) in vitro complex I activity relative to solvent control
[17] = 37.5 µM, wild-type C. elegans mitochondria, single replicate
[18] = 37.5 µM, wild-type C. elegans mitochondria, single replicate, read-out: percent (%) in vitro complex I activity relative to solvent control
[19] = 75 µM, wild-type C. elegans mitochondria, mean of replicates, read-out: percent (%) in vitro complex I activity relative to solvent control
[20] = 75 µM, wild-type C. elegans mitochondria, single replicate
[21] = 75 µM, wild-type C. elegans mitochondria, single replicate, read-out: percent (%) in vitro complex I activity relative to solvent control

Chain of C. elegans (N2) complex I (NADH:ubiquinone oxidoreductase) (Q94360 17-199): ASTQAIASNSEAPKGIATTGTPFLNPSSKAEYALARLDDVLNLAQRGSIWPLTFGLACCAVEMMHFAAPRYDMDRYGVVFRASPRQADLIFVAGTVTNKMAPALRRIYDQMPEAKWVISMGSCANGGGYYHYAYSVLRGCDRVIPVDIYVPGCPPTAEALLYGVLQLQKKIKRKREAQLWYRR
Chain of C. elegans (N2) complex I (NADH:ubiquinone oxidoreductase) (P24887 whole entry): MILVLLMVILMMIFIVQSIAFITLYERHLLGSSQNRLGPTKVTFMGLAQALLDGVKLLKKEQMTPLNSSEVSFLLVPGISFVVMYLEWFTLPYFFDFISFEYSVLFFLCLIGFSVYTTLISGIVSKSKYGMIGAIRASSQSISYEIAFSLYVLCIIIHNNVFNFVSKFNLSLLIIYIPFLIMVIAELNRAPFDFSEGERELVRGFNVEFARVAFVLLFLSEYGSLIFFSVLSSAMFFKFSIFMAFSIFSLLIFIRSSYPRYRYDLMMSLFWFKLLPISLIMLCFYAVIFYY
Chain of C. elegans (N2) complex I (NADH:ubiquinone oxidoreductase) (Q93873 31-482): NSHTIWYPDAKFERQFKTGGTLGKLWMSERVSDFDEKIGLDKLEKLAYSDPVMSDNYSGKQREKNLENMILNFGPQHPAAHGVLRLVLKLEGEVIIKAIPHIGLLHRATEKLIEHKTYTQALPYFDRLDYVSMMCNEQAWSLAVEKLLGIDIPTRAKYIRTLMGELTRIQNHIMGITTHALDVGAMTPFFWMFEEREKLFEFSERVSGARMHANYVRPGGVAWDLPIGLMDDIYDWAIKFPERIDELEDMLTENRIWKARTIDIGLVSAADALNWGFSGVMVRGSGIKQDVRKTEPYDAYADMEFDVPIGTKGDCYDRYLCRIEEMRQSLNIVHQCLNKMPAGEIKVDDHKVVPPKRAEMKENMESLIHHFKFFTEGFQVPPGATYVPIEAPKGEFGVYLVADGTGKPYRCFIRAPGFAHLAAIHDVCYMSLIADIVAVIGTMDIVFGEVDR

## COC(=O)Nc1nc2ccc(Sc3ccccc3)cc2[nH]1 [fenbendazole, reference compound]
[1]
  remaining activity at 0.125 µM: 103%
[2]
  percent (%) in vitro complex I activity relative to solvent control: 106.082% and 99.397%
0.125 µM, wild-type C. elegans mitochondria, single replicate, read-out: percent (%) in vitro complex I activity relative to solvent control
  remaining activity at 0.125 µM: 102%
[3]
  remaining activity at 0.313 µM: 101%
[4]
  percent (%) in vitro complex I activity relative to solvent control: 105.067% and 102.773%
[5]
  remaining activity at 0.313 µM: 101%
[6]
  remaining activity at 0.625 µM: 101%
[7]
  percent (%) in vitro complex I activity relative to solvent control: 108.826% and 84.037% and 107.828% and 101.922%
[8]
  remaining activity at 1.5 µM: 101%
[9]
  percent (%) in vitro complex I activity relative to solvent control: 107.818% and 102.911% and 106.921% and 84.834%
[10]
  remaining activity at 3 µM: 108%
[11]
  percent (%) in vitro complex I activity relative to solvent control: 108.394% and 103.450%
[12]
  remaining activity at 3 µM: 111%
[13]
  remaining activity at 15 µM: 103%
[14]
  percent (%) in vitro complex I activity relative to solvent control: 105.414% and 100.145%
[15]
  remaining activity at 15 µM: 104%
[16]
  remaining activity at 37.5 µM: 106%
[17]
  percent (%) in vitro complex I activity relative to solvent control: 108.185% and 102.298%
[18]
  remaining activity at 37.5 µM: 112%
[19]
  remaining activity at 75 µM: 99.7%
[20]
  percent (%) in vitro complex I activity relative to solvent control: 105.576% and 98.309%
[21]
  remaining activity at 75 µM: 98.1%
Dose 0.0001 µM, wild-type C. elegans, mean of replicates, read-out: in vitro complex I activity relative to solvent control, Mean
  remaining activity at 0.0001 µM: 92.7%
Dose 0.0001 µM, wild-type C. elegans, single replicate
  in vitro complex I activity relative to solvent control, individual replicate: 89.632% and 90.262%
Dose 0.0001 µM, wild-type C. elegans, single replicate, read-out: in vitro complex I activity relative to solvent control, individual replicate
  remaining activity at 0.0001 µM: 94.2%
Dose 0.0005 µM, wild-type C. elegans, mean of replicates, read-out: in vitro complex I activity relative to solvent control, Mean
  remaining activity at 0.0005 µM: 102%
Dose 0.0005 µM, wild-type C. elegans, single replicate
  in vitro complex I activity relative to solvent control, individual replicate: 109.063% and 93.803% and 100.567%
Dose 0.0005 µM, wild-type C. elegans, single replicate, read-out: in vitro complex I activity relative to solvent control, individual replicate
  remaining activity at 0.0005 µM: 104%
Dose 0.001 µM, wild-type C. elegans, mean of replicates, read-out: in vitro complex I activity relative to solvent control, Mean
  remaining activity at 0.001 µM: 107%
Dose 0.001 µM, wild-type C. elegans, single replicate
  in vitro complex I activity relative to solvent control, individual replicate: 112.362% and 106.090% and 103.456%
Dose 0.001 µM, wild-type C. elegans, single replicate, read-out: in vitro complex I activity relative to solvent control, individual replicate
  remaining activity at 0.001 µM: 107%
Dose 0.0025 µM, wild-type C. elegans, mean of replicates, read-out: in vitro complex I activity relative to solvent control, Mean
  remaining activity at 0.0025 µM: 106%
Dose 0.0025 µM, wild-type C. elegans, single replicate
  in vitro complex I activity relative to solvent control, individual replicate: 111.626% and 103.191% and 101.180%
Dose 0.0025 µM, wild-type C. elegans, single replicate, read-out: in vitro complex I activity relative to solvent control, individual replicate
  remaining activity at 0.0025 µM: 107%
Dose 0.005 µM, wild-type C. elegans, mean of replicates, read-out: in vitro complex I activity relative to solvent control, Mean
  remaining activity at 0.005 µM: 106%
Dose 0.005 µM, wild-type C. elegans, single replicate
  in vitro complex I activity relative to solvent control, individual replicate: 110.787% and 104.169% and 105.146%
Dose 0.005 µM, wild-type C. elegans, single replicate, read-out: in vitro complex I activity relative to solvent control, individual replicate
  remaining activity at 0.005 µM: 104%
Dose 0.013 µM, wild-type C. elegans, mean of replicates, read-out: in vitro complex I activity relative to solvent control, Mean
  remaining activity at 0.013 µM: 105%
Dose 0.013 µM, wild-type C. elegans, single replicate
  in vitro complex I activity relative to solvent control, individual replicate: 109.484% and 102.444% and 103.368%
Dose 0.013 µM, wild-type C. elegans, single replicate, read-out: in vitro complex I activity relative to solvent control, individual replicate
  remaining activity at 0.013 µM: 105%
Dose 0.025 µM, wild-type C. elegans, mean of replicates, read-out: in vitro complex I activity relative to solvent control, Mean
  remaining activity at 0.025 µM: 108%
Dose 0.025 µM, wild-type C. elegans, single replicate
  in vitro complex I activity relative to solvent control, individual replicate: 112.068% and 112.677% and 102.223%
Dose 0.025 µM, wild-type C. elegans, single replicate, read-out: in vitro complex I activity relative to solvent control, individual replicate
  remaining activity at 0.025 µM: 106%
Dose 0.063 µM, wild-type C. elegans, mean of replicates, read-out: in vitro complex I activity relative to solvent control, Mean
  remaining activity at 0.063 µM: 102%
Dose 0.063 µM, wild-type C. elegans, single replicate
  in vitro complex I activity relative to solvent control, individual replicate: 106.376% and 104.996% and 99.618%
Dose 0.063 µM, wild-type C. elegans, single replicate, read-out: in vitro complex I activity relative to solvent control, individual replicate
  remaining activity at 0.063 µM: 98%
Dose 0.125 µM, wild-type C. elegans, mean of replicates, read-out: in vitro complex I activity relative to solvent control, Mean
  remaining activity at 0.125 µM: 103%
Dose 0.125 µM, wild-type C. elegans, single replicate
  in vitro complex I activity relative to solvent control, individual replicate: 106.082% and 99.397%
Dose 0.125 µM, wild-type C. elegans, single replicate, read-out: in vitro complex I activity relative to solvent control, individual replicate
  remaining activity at 0.125 µM: 104%
Dose 0.313 µM, wild-type C. elegans, mean of replicates, read-out: in vitro complex I activity relative to solvent control, Mean
  remaining activity at 0.313 µM: 101%
Dose 0.313 µM, wild-type C. elegans, single replicate
  in vitro complex I activity relative to solvent control, individual replicate: 105.067% and 102.773%
Dose 0.313 µM, wild-type C. elegans, single replicate, read-out: in vitro complex I activity relative to solvent control, individual replicate
  remaining activity at 0.313 µM: 96.6%
Dose 0.625 µM, wild-type C. elegans, mean of replicates, read-out: in vitro complex I activity relative to solvent control, Mean
  remaining activity at 0.625 µM: 101%
Dose 0.625 µM, wild-type C. elegans, single replicate
  in vitro complex I activity relative to solvent control, individual replicate: 84.037% and 107.828% and 101.922% and 108.826%
Dose 1.5 µM, wild-type C. elegans, mean of replicates, read-out: in vitro complex I activity relative to solvent control, Mean
  remaining activity at 1.5 µM: 101%
Dose 1.5 µM, wild-type C. elegans, single replicate
  in vitro complex I activity relative to solvent control, individual replicate: 102.911% and 106.921% and 84.834% and 107.818%
Dose 3 µM, wild-type C. elegans, mean of replicates, read-out: in vitro complex I activity relative to solvent control, Mean
  remaining activity at 3 µM: 108%
Dose 3 µM, wild-type C. elegans, single replicate
  in vitro complex I activity relative to solvent control, individual replicate: 108.394% and 103.450%
Dose 3 µM, wild-type C. elegans, single replicate, read-out: in vitro complex I activity relative to solvent control, individual replicate
  remaining activity at 3 µM: 107%
Dose 15 µM, wild-type C. elegans, mean of replicates, read-out: in vitro complex I activity relative to solvent control, Mean
  remaining activity at 15 µM: 103%
Dose 15 µM, wild-type C. elegans, single replicate
  in vitro complex I activity relative to solvent control, individual replicate: 105.414% and 100.145%
Dose 15 µM, wild-type C. elegans, single replicate, read-out: in vitro complex I activity relative to solvent control, individual replicate
  remaining activity at 15 µM: 101%
Dose 37.5 µM, wild-type C. elegans, mean of replicates, read-out: in vitro complex I activity relative to solvent control, Mean
  remaining activity at 37.5 µM: 106%
Dose 37.5 µM, wild-type C. elegans, single replicate
  in vitro complex I activity relative to solvent control, individual replicate: 108.185% and 102.298%
Dose 37.5 µM, wild-type C. elegans, single replicate, read-out: in vitro complex I activity relative to solvent control, individual replicate
  remaining activity at 37.5 µM: 103%
Dose 75 µM, wild-type C. elegans, mean of replicates, read-out: in vitro complex I activity relative to solvent control, Mean
  remaining activity at 75 µM: 99.7%
Dose 75 µM, wild-type C. elegans, single replicate
  in vitro complex I activity relative to solvent control, individual replicate: 105.576% and 98.309%
Dose 75 µM, wild-type C. elegans, single replicate, read-out: in vitro complex I activity relative to solvent control, individual replicate
  remaining activity at 75 µM: 96.8%

## COC(=O)Nc1nc2ccc(C(=O)c3ccccc3)cc2[nH]1 [mebendazole, reference compound]
[1]
  remaining activity at 0.125 µM: 104%
[2]
  percent (%) in vitro complex I activity relative to solvent control: 95.514% and 94.187% and 106.525% and 121.019%
[3]
  remaining activity at 0.313 µM: 102%
[4]
  percent (%) in vitro complex I activity relative to solvent control: 96.314% and 108.975% and 110.715%
[5]
  remaining activity at 0.313 µM: 92.7%
[6]
  remaining activity at 0.625 µM: 105%
[7]
  percent (%) in vitro complex I activity relative to solvent control: 110.023% and 108.944%
0.625 µM, wild-type C. elegans mitochondria, single replicate, read-out: percent (%) in vitro complex I activity relative to solvent control
  remaining activity at 0.625 µM: 100%
[8]
  remaining activity at 1.5 µM: 101%
[9]
  percent (%) in vitro complex I activity relative to solvent control: 91.749% and 101.813% and 107.753%
1.5 µM, wild-type C. elegans mitochondria, single replicate, read-out: percent (%) in vitro complex I activity relative to solvent control
  remaining activity at 1.5 µM: 101%
[10]
  remaining activity at 3 µM: 104%
[11]
  percent (%) in vitro complex I activity relative to solvent control: 97.513% and 112.361% and 102.837%
[12]
  remaining activity at 3 µM: 104%
[13]
  remaining activity at 15 µM: 102%
[14]
  percent (%) in vitro complex I activity relative to solvent control: 94.944% and 106.604% and 105.394%
[15]
  remaining activity at 15 µM: 102%
[16]
  remaining activity at 37.5 µM: 97.7%
[17]
  percent (%) in vitro complex I activity relative to solvent control: 90.732% and 104.066% and 100.084%
[18]
  remaining activity at 37.5 µM: 95.9%
[19]
  remaining activity at 75 µM: 91.3%
[20]
  percent (%) in vitro complex I activity relative to solvent control: 90.802% and 93.867% and 91.631%
[21]
  remaining activity at 75 µM: 88.8%
